Experiment: xn = mol fraction of the nth substance listed
Conditions: Liquid; for viscosity: Capillary tube (Ostwald / Ubbelohde) method; for mass density: Vibrating tube method

CCO [ethanol] + O
Conditions	mass density, 10000 kPa [kg/m3]	mass density, 20000 kPa [kg/m3]	mass density, 30000 kPa [kg/m3]	mass density, 40000 kPa [kg/m3]	viscosity, 10000 kPa [mPa·s]	viscosity, 20000 kPa [mPa·s]	viscosity, 30000 kPa [mPa·s]	viscosity, 40000 kPa [mPa·s]
350.7 K, x1 = 0.1	933.68	936.77	941.46	945.15	0.537	0.546	0.556	0.578
350.7 K, x1 = 0.2	895.78	900.9	905.65	911.39	0.625	0.638	0.651	0.681
350.7 K, x1 = 0.3	863.89	870.14	876.58	881.9	0.632	0.661	0.684	0.726
350.7 K, x1 = 0.4	838.33	845.24	852.53	859.05	0.64	0.669	0.691	0.737
350.7 K, x1 = 0.6	798.55	807.87	815.61	822.93	0.595	0.624	0.654	0.695
350.7 K, x1 = 0.8	768.37	778.79	787.77	795.87	0.531	0.57	0.601	0.643
350.7 K, x1 = 1	745.63	757.47	766.87	775.75	0.461	0.518	0.555	0.59
373.2 K, x1 = 0.1	913.36	918.8	924.46	928.74	0.401	0.397	0.403	0.421
373.2 K, x1 = 0.2	874.72	880.64	886.74	892.24	0.448	0.449	0.459	0.483
373.2 K, x1 = 0.3	842.36	849.56	856.1	862.39	0.461	0.473	0.484	0.515
373.2 K, x1 = 0.4	815.79	823.45	830.81	837.9	0.462	0.477	0.489	0.509
373.2 K, x1 = 0.6	776.56	785.48	794.06	801.93	0.434	0.451	0.461	0.489
373.2 K, x1 = 0.8	747.1	757.25	767.44	776.49	0.381	0.406	0.439	0.456
373.2 K, x1 = 1	726.87	738.25	750.02	757.87	0.364	0.382	0.404	0.443
476.2 K, x1 = 0.1	802.54	810.76	819.25	827.58	0.148	0.152	0.159	0.164
476.2 K, x1 = 0.2	752.52	764.89	776.24	786.01	0.151	0.157	0.164	0.168
476.2 K, x1 = 0.3	713.85	728.6	743.62	754.08	0.144	0.153	0.164	0.172
476.2 K, x1 = 0.4	682.37	700.31	717.25	730.44	0.139	0.148	0.159	0.167
476.2 K, x1 = 0.6	636.05	658.71	679.71	694.35	0.125	0.138	0.15	0.161
476.2 K, x1 = 0.8	605.36	633.16	656.43	671.76	0.113	0.129	0.144	0.155
476.2 K, x1 = 1	582.85	613.37	638.82	656.07	0.107	0.123	0.138	0.151

From the NIST ThermoML archive (doi:10.1016/j.fluid.2015.07.012)
